From ChEMBL document CHEMBL5058646 (2022) come the findings set out here.

By inhibition is commonly meant the percentage by which the read-out fell short of the control. One may read the Tm as the temperature at the midpoint of the melting transition.

Each structure is given as a SMILES string.

For experiment [1], the target named is Vasopressin V1a receptor (Homo sapiens) (UniProt P37288). Nature of the experiment: GPCRScan assay: inhibition of V1A. The conditions noted are these: Compound concentration 10.0 uM. More on the design: radioligand conc. used [nm], parental cells.
The target of experiment [2] is Tyrosine-protein kinase ABL1 (Homo sapiens) (UniProt P00519). Nature of the experiment: ABL1 SGC Tm panel (DSF). Conditions: Compound concentration 20.0 uM.
Tyrosine-protein kinase ABL1 (Homo sapiens), sequence (P00519 whole entry): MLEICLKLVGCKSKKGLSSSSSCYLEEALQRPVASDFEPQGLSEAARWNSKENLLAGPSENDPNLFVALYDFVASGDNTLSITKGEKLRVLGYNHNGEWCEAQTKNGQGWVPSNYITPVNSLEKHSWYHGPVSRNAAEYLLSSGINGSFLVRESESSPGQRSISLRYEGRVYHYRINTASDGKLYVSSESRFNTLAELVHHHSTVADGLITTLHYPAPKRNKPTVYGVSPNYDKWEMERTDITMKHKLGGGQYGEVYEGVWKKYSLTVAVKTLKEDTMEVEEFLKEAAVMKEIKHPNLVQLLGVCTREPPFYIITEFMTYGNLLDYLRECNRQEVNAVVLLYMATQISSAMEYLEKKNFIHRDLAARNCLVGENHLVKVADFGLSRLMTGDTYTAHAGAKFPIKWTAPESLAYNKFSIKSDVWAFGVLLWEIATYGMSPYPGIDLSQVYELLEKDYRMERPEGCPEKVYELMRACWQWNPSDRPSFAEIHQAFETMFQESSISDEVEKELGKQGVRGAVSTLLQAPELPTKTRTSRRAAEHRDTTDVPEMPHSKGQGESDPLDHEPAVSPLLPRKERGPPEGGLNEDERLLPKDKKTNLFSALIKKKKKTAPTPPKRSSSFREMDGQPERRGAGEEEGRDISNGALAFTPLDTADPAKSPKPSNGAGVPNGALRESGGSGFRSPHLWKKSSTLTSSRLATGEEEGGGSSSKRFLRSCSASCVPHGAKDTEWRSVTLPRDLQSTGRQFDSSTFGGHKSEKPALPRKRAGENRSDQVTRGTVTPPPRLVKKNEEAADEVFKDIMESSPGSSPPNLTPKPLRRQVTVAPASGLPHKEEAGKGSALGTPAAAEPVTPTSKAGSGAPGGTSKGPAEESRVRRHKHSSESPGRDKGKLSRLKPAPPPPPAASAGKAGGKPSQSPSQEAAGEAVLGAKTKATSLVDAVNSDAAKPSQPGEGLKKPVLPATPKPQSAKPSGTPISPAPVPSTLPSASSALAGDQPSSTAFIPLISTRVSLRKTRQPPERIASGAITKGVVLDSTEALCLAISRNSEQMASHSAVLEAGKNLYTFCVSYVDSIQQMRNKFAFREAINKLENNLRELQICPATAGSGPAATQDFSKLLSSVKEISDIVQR
Experiment [3] deals with Calcium/calmodulin-dependent protein kinase type IV (Homo sapiens) (UniProt Q16566). Nature of the experiment: CAMK4 SGC Tm panel (DSF). The conditions noted are these: Compound concentration 20.0 uM.
For experiment [4], the target named is Ephrin type-A receptor 2 (Homo sapiens) (UniProt P29317). Nature of the experiment: EPHA2 SGC Tm panel (DSF). The conditions noted are these: Compound concentration 20.0 uM.
Experiment [5] addresses Cyclin-G-associated kinase (Homo sapiens) (UniProt O14976). Nature of the experiment: GAK SGC Tm panel (DSF). The conditions noted are these: Compound concentration 20.0 uM.
For experiment [6], the target named is Serine/threonine-protein kinase pim-1 (Homo sapiens) (UniProt P11309). The experiment can be described thus: PIM1 SGC Tm panel (DSF). Conditions: Compound concentration 20.0 uM.
Serine/threonine-protein kinase pim-1 (Homo sapiens), sequence (P11309 whole entry, looked up): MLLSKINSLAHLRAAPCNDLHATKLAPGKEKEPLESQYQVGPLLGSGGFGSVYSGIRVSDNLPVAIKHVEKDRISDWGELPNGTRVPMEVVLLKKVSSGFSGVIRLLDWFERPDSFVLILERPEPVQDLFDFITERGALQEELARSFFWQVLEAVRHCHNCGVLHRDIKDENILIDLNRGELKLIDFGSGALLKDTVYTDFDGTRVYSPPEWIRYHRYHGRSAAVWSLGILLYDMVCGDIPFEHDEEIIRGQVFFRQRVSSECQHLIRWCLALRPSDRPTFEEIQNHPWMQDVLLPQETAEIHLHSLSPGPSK
Experiment [7] addresses Serine/threonine-protein kinase 10 (Homo sapiens) (UniProt O94804). Nature of the experiment: STK10 SGC Tm panel (DSF). Conditions: Compound concentration 20.0 uM.
The target of experiment [8] is D(4) dopamine receptor (Homo sapiens) (UniProt P21917). The conditions noted are these: Compound concentration 10.0 uM.
D(4) dopamine receptor (Homo sapiens), sequence (P21917 whole entry): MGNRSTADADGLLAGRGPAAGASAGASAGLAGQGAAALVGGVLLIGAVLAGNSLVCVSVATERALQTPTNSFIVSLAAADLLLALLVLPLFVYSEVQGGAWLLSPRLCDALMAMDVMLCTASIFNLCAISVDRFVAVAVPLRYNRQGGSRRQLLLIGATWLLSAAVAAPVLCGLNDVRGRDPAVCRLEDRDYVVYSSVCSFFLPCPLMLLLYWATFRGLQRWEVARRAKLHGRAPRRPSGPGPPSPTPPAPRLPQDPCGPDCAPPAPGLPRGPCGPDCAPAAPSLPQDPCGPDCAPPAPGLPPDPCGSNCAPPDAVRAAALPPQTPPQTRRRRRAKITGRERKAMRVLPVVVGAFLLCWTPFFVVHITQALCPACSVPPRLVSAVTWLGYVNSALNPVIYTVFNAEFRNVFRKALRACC
For experiment [9], the target named is D(1B) dopamine receptor (Homo sapiens) (UniProt P21918). Conditions: Compound concentration 10.0 uM.
The target of experiment [10] is Sodium-dependent dopamine transporter (Homo sapiens, UniProt Q01959). Conditions: Compound concentration 10.0 uM.
Sodium-dependent dopamine transporter, sequence (Q01959 whole entry): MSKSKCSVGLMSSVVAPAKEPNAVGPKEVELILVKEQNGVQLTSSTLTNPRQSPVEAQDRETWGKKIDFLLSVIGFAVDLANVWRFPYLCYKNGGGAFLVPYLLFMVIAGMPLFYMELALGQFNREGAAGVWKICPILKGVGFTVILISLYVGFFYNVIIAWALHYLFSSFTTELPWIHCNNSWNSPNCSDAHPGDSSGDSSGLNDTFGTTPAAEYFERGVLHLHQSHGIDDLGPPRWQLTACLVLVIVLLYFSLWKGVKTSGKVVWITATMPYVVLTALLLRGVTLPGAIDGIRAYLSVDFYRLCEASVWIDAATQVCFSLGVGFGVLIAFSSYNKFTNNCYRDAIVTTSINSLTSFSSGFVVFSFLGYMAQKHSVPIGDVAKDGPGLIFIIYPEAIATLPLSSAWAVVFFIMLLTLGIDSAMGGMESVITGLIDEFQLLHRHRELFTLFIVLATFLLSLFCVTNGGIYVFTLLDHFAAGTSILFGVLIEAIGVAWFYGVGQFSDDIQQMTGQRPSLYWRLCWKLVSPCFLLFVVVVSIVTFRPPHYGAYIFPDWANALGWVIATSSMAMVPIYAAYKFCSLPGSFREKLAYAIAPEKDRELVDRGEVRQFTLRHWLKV
Experiment [11] has as its target Muscarinic acetylcholine receptor M1 (Homo sapiens) (UniProt P11229). The conditions noted are these: Compound concentration 10.0 uM.
The target of experiment [12] is GABA-A receptor; anion channel (Rattus norvegicus) (UniProt O09028+P15431+P18506+P18508+P19969+P20236+P23574+P23576+P28471+P28473+P30191+P62813+P63079+P63138+Q91ZM7+Q9ES14). The conditions noted are these: Compound concentration 10.0 uM.
Experiment [13] has as its target Transcription regulator protein BACH2 (Homo sapiens) (UniProt Q9BYV9). The conditions noted are these: SUD4, Compound concentration 1.0 uM.
Experiment [14] concerns the target T1, Zinc finger and BTB domain-containing protein 10 (Homo sapiens) (UniProt Q96DT7).
T1 sequence (whole entry): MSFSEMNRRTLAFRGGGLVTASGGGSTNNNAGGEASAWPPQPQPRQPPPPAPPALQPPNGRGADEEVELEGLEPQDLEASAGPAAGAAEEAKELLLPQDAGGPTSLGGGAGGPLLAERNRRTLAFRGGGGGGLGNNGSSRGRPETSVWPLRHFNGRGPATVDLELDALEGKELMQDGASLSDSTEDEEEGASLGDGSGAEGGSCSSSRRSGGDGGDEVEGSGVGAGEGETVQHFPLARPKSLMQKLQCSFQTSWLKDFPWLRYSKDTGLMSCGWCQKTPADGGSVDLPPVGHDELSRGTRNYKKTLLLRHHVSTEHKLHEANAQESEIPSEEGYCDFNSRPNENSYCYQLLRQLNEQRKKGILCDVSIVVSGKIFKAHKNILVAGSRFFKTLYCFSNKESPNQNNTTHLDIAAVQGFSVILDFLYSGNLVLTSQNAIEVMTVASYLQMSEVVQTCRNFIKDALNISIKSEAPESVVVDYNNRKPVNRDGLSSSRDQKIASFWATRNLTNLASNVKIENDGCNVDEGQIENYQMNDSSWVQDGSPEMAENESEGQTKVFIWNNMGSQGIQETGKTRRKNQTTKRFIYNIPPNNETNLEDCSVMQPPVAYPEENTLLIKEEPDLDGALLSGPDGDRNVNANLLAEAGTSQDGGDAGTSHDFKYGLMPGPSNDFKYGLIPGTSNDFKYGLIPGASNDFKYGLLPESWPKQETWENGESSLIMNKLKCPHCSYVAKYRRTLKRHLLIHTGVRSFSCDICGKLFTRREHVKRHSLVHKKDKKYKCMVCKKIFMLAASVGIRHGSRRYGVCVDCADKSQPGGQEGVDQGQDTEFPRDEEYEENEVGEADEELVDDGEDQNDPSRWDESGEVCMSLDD
The conditions noted are these: SUD4, Compound concentration 1.0 uM.

The target in experiment [15] is T2, Zinc finger and BTB domain-containing protein 40 (Homo sapiens) (UniProt Q9NUA8).
T2 sequence (whole entry): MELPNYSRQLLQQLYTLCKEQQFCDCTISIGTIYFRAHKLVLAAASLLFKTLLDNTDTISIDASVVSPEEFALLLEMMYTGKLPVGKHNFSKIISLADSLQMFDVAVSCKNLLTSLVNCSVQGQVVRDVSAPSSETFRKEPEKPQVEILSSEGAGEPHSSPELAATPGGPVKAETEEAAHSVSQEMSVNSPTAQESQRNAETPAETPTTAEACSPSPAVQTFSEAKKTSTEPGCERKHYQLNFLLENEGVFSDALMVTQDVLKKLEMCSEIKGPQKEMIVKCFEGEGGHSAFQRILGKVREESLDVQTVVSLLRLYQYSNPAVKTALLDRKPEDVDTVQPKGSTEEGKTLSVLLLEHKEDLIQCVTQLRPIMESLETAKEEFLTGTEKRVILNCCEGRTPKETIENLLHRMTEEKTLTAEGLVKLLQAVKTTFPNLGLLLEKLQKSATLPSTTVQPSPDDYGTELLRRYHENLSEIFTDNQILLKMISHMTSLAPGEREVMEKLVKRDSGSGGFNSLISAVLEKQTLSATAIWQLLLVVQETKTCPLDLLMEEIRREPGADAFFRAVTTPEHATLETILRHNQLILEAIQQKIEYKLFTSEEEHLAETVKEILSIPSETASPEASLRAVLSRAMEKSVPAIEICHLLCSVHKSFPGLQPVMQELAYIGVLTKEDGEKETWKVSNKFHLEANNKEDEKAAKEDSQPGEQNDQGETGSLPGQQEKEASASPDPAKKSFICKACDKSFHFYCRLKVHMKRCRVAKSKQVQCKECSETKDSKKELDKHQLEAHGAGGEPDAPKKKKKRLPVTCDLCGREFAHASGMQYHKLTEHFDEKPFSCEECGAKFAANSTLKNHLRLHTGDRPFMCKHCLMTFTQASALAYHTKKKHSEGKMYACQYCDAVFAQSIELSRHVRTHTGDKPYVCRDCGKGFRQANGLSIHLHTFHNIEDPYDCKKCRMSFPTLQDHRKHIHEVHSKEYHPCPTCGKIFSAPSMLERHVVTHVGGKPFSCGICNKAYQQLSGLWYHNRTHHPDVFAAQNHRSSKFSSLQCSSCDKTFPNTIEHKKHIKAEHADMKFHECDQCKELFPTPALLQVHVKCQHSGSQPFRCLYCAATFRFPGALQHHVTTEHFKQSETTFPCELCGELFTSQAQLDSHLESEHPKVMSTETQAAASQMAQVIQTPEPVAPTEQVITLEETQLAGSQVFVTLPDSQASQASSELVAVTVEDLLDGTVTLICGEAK
Conditions: SUD4, Compound concentration 1.0 uM.

Serine/threonine-protein kinase 10 (Homo sapiens), sequence (O94804 whole entry, looked up): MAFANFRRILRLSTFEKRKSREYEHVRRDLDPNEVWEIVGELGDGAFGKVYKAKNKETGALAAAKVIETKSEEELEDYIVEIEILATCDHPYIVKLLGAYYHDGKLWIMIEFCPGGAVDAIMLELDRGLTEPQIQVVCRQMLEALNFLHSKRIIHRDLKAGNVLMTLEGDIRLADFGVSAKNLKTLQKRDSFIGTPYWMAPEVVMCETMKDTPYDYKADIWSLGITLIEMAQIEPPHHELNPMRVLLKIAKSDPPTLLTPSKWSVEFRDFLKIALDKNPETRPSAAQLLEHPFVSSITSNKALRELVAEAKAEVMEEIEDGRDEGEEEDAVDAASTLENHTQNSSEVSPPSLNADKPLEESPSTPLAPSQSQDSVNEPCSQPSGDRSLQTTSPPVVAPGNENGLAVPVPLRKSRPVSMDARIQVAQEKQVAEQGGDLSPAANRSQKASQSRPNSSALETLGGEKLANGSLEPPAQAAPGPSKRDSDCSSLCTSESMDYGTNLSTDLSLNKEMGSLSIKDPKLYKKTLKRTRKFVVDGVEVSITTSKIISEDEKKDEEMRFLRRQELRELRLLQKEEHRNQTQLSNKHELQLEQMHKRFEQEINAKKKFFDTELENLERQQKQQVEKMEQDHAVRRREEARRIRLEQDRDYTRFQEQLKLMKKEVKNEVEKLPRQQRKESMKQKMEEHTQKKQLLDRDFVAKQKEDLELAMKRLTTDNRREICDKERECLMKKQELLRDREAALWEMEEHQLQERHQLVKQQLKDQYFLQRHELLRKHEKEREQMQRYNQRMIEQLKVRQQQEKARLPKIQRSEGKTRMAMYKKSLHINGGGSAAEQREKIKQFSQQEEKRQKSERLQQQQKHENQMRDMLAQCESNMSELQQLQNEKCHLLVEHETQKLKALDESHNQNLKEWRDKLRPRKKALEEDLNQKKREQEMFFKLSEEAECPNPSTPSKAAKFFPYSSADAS
Muscarinic acetylcholine receptor M1 (Homo sapiens), sequence (P11229 whole entry): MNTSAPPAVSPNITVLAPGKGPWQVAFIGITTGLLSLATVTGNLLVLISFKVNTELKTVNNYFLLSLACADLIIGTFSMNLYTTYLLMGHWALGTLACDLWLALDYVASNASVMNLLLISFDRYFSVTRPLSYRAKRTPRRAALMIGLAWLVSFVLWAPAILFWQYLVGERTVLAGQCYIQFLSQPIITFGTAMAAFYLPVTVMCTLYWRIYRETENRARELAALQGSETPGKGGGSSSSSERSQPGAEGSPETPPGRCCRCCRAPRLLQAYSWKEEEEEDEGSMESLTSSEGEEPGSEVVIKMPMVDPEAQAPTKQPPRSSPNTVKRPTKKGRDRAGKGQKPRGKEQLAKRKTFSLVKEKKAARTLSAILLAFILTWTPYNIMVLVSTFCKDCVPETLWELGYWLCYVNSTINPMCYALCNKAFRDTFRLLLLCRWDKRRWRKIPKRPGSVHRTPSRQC
Transcription regulator protein BACH2 (Homo sapiens), sequence (Q9BYV9 whole entry, the tested form may be a part): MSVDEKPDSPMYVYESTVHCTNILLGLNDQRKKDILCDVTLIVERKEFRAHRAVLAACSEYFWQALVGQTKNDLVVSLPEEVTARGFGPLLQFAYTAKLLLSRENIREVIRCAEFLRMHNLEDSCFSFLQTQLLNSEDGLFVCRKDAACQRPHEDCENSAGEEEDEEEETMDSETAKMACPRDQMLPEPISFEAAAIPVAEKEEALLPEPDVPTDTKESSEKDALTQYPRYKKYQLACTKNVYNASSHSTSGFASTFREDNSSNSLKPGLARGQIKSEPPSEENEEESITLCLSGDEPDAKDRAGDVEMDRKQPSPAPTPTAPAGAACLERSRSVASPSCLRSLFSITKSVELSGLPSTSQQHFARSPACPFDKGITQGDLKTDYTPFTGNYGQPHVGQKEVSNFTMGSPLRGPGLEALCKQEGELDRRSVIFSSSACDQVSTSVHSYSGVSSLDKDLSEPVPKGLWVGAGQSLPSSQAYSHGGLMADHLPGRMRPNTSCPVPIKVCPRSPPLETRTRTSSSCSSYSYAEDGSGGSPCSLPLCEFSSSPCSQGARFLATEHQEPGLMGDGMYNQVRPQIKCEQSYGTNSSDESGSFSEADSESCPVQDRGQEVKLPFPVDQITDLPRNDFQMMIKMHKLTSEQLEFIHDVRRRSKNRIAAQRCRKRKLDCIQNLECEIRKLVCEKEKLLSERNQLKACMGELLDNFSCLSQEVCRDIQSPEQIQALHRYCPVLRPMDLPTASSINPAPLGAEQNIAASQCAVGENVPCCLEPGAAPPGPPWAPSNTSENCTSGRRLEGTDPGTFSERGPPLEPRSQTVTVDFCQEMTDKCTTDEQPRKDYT

Take `C[C@@H]1CN(c2ncc(Cl)c(Nc3ccc4c(c3)n(CCC(C)(C)O)c(=O)n4C)n2)C[C@H](C)C1(F)F`: the inhibition is 78.6% in [1]; 15.2% in [8]; 26.2% in experiment [9]; 50.8% in experiment [10]; 3.3% in experiment [11]; 7.06% in [12]. Further, the Tm in experiment [2] was 46 °C; in [3], 48 °C; in experiment [4], 46 °C; in [5], 52 °C; in experiment [6], 41 °C; in experiment [7], 42 °C. The LogFC is -0.0358 in experiment [13], 0.121 in [14] and -0.00123 in experiment [15].
